Data set [1] can be described thus: Plasma clearance in Sprague-Dawley rat at 2 mg/kg, iv. The arrangement: dose 2 mg/kg, route intravenous. The data set is classed as ADME, organism-based.
Data set [2] is described as follows: AUC (0 to infinity) in Sprague-Dawley rat at 2 mg/kg, iv. The class given is ADME, organism-based. Details: time infinity, dose 2 mg/kg, route intravenous. The following applies: plasma.
A further data set addresses T1, Aurora kinase A (Homo sapiens, UniProt O14965).
T1 sequence (O14965 whole entry): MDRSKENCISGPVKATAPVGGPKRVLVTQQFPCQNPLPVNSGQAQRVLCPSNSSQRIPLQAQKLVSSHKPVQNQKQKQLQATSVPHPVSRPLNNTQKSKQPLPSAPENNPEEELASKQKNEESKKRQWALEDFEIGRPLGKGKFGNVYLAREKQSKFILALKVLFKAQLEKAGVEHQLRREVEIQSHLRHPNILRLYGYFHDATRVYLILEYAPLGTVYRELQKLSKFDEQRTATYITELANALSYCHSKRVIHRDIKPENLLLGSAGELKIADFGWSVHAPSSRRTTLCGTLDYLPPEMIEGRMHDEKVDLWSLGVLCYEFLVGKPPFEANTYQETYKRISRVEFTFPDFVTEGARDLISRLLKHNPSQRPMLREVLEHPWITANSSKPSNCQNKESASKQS
In words: biochemical.

Data set [3] is described as follows: Half life in Sprague-Dawley rat at 2 mg/kg, iv. The data set is classed as ADME, organism-based. Details: dose 2 mg/kg, route intravenous. The following applies: in vivo.
The target of data set [4] is T2, Receptor-type tyrosine-protein kinase FLT3 (Homo sapiens, UniProt P36888).
T2 sequence (P36888 whole entry): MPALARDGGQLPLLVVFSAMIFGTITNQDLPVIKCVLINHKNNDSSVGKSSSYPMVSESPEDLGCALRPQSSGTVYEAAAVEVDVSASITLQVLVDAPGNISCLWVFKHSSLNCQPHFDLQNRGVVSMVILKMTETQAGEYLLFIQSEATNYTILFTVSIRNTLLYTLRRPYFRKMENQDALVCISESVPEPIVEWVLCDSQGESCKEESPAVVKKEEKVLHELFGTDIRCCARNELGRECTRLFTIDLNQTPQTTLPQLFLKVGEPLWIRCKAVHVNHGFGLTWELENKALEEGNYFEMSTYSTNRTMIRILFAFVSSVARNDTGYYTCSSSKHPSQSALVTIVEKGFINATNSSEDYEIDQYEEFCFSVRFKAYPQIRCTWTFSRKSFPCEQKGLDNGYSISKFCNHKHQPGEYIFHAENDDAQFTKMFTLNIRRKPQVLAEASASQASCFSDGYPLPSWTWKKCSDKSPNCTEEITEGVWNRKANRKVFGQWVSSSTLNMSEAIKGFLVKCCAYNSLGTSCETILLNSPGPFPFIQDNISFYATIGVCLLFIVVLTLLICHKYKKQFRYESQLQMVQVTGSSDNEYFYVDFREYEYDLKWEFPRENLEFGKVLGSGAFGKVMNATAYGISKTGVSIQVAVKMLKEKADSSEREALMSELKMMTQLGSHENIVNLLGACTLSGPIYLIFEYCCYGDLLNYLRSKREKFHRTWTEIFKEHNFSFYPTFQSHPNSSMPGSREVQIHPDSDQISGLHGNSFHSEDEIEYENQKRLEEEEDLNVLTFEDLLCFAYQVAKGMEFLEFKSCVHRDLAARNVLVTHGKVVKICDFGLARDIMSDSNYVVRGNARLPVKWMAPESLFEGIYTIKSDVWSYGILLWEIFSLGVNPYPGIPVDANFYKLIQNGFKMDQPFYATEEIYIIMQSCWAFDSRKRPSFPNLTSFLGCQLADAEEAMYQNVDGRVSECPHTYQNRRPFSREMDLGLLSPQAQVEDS
Kind of data set: biochemical. The data set is classed as cell-based, Sf9.
Description: Inhibition of wild type GST tagged FLT3 kinase (567 to 993) (unknown origin) transfected in insect sf9 cells after 4 hrs by wallac counting analysis

Data set [5] concerns the target Vascular endothelial growth factor receptor 2 (Homo sapiens, UniProt P35968). Kind of data set: biochemical. The data set is classed as cell-based, Sf9.
Description: Inhibition of recombinant GST tagged VEGFR2 (789 to 1356) (unknown origin) transfected in insect sf9 cells after 120 mins by wallac counting analysis
Data set [6] is described as follows: Volume of distribution at steady state in Sprague-Dawley rat at 2 mg/kg, iv. The arrangement: dose 2 mg/kg, route intravenous. The data set is classed as ADME, organism-based. The following applies: in vivo, read-out: Vdss.
In a further data set the test system is MOLM-13. Kind of data set: cells. The following applies: Homo sapiens, MOLM-13, 72 h.
Data set [7] in a line: Oral bioavailability in Sprague-Dawley rat at 10 mg/kg. The data set is classed as ADME, organism-based. The following applies: in vivo.

Sequence of Vascular endothelial growth factor receptor 2 (P35968 whole entry): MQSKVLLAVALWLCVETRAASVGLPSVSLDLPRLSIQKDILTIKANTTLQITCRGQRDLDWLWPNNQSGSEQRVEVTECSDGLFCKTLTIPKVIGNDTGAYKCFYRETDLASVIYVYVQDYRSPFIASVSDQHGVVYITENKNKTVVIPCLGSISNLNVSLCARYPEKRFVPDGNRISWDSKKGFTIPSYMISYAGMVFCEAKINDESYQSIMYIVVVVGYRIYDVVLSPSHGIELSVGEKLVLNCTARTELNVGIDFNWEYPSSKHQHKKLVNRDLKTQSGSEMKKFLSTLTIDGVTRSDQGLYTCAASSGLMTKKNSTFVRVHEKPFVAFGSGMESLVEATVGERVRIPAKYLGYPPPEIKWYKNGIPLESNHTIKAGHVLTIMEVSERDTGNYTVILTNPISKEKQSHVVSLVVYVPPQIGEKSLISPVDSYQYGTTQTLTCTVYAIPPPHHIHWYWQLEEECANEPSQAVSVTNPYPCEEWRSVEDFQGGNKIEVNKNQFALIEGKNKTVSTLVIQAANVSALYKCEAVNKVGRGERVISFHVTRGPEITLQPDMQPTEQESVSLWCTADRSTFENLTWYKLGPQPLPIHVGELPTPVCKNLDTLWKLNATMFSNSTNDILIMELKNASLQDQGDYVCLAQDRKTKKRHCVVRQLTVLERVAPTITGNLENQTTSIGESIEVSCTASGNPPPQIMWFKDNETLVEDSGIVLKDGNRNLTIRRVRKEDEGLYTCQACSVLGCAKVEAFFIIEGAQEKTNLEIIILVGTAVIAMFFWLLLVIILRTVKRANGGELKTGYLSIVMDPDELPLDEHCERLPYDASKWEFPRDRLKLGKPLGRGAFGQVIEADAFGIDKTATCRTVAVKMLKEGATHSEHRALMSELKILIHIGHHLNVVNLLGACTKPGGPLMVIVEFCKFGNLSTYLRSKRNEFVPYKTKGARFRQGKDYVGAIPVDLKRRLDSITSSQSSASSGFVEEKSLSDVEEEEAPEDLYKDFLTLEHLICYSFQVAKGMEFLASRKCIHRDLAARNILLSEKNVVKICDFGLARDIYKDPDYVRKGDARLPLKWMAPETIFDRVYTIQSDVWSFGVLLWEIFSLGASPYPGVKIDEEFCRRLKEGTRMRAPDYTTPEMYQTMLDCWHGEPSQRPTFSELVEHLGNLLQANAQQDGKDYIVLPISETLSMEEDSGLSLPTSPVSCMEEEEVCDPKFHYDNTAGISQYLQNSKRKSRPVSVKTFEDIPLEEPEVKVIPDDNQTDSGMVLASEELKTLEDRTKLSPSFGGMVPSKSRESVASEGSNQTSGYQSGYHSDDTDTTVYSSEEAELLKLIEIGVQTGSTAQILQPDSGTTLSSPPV
Description for Aurora kinase A: Inhibition of recombinant GST tagged Aurora A kinase (123 to 401) (unknown origin) transfected in insect sf9 cells after 90 mins by wallac counting analysis

Usually clearance stands for a measure of how efficiently the substance is removed, as volume per time. Lower therefore signals a low capacity for elimination. Broadly, the AUC(0-inf) is total exposure, with the tail of the curve extrapolated. Read a high AUC(0-inf) as high exposure. For orientation: IC50 means the concentration at which inhibition is half-maximal. What is called half-life is the time in which the quantity being followed falls by half. Higher therefore signals slow loss. The GI50 is the concentration giving 50% growth inhibition. High values mean lower sensitivity of the cells, low ones greater sensitivity of the cells. The bioavailability is dose-corrected exposure relative to a reference, in per cent. A high value points to much systemic uptake. As for `Cc1cc(-c2cc(NC(=O)c3ccc(OCCN4CCOCC4)cc3)[nH]n2)ccc1NC(=O)Nc1cc(C(C)(C)C)on1`, the clearance in data set [1] worked out at 13.9 mL/min/kg. The compound further showed an AUC(0-inf) in data set [2] of 2860 ng·h/mL. Also, the values for the IC50 (on Aurora kinase A; in [4]; in [5]) were 69 nM, 20 nM and 27 nM, respectively. The half-life in data set [3] was 318 min. Besides, in [6], the Vd was 4.7 L/kg. In the data set with MOLM-13, this compound came in with a GI50 of 8 nM. Besides, the bioavailability in data set [7] was 4%.

For the origin of these results see ChEMBL document CHEMBL2384934, “Discovery of 3-phenyl-1H-5-pyrazolylamine derivatives containing a urea pharmacophore as potent and efficacious inhibitors of FMS-like tyrosine kinase-3 (FLT3)” (Bioorg Med Chem, 2013).
